Data: patent publication US6136813A, “Pharmaceutical treatment” (Beecham plc, priority 1989, dated 2000)
Read-outs that look alike come from different tables or passages of the source.

Assay: Blood levels of penciclovir in Pekin ducks after oral dosing with penciclovir or famciclovir
Type: in vivo
Conditions: duck; for AUC at 6 h: 0-6 hr; for concentration at 0.25 h: 15 min; for concentration at 32 min / concentration at 0.5 h: 30 min; for concentration at 32 min: sample collected at 32 min; for concentration at 1 h / concentration at 65 min: 60 min; for concentration at 2 h: 120 min; for concentration at 4 h: 240 min; for concentration at 6 h: 360 min; for concentration at 65 min: sample collected at 65 min
[1] = 5 mg/kg, oral famciclovir 5 mg/kg, Duck No. 117
[2] = 5 mg/kg, oral famciclovir 5 mg/kg, Duck No. 154
[3] = 25 mg/kg, oral famciclovir 25 mg/kg, Duck No. 111
[4] = 25 mg/kg, oral famciclovir 25 mg/kg, Duck No. 153
[5] = 20 mg/kg, oral penciclovir 20 mg/kg, Duck No. 139
[6] = 20 mg/kg, oral penciclovir 20 mg/kg, Duck No. 169
[7] = 100 mg/kg, oral penciclovir 100 mg/kg, Duck No. 142
[8] = 100 mg/kg, oral penciclovir 100 mg/kg, Duck No. 163

SMILES: CC(=O)OCC(CCn1cnc2cnc(N)nc21)COC(C)=O [famciclovir, 9-(4-acetoxy-3-acetoxymethylbut-1-yl)-2-aminopurine]
- AUC at 6 h (5 mg/kg, oral famciclovir 5 mg/kg, Duck No. 117, read-out: AUC (area under the 0-6 hr. concentration/time curve) of penciclovir in blood): 15 µM·h
- AUC at 6 h (5 mg/kg, oral famciclovir 5 mg/kg, Duck No. 154, read-out: AUC (area under the 0-6 hr. concentration/time curve) of penciclovir in blood): 12 µM·h
- concentration at 0.25 h [1]: 8.7 µM
- concentration at 0.25 h [2]: 5.1 µM
- concentration at 32 min [1]: 8.4 µM
- concentration at 32 min [2]: 3.9 µM
- concentration at 1 h [1]: 7.5 µM
- concentration at 1 h [2]: 3.5 µM
- concentration at 2 h [1]: 2 µM
- concentration at 2 h [2]: 2 µM
- concentration at 4 h [1]: ~0.5 µM
- concentration at 4 h [2]: 1.4 µM
- concentration at 6 h [2]: 1 µM
- AUC at 6 h (25 mg/kg, oral famciclovir 25 mg/kg, Duck No. 111, read-out: AUC (area under the 0-6 hr. concentration/time curve) of penciclovir in blood): 126 µM·h
- AUC at 6 h (25 mg/kg, oral famciclovir 25 mg/kg, Duck No. 153, read-out: AUC (area under the 0-6 hr. concentration/time curve) of penciclovir in blood): 90 µM·h
- concentration at 0.25 h [3]: 22 µM
- concentration at 0.25 h [4]: 18 µM
- concentration at 0.5 h [3]: 31 µM
- concentration at 32 min [4]: 20 µM
- concentration at 1 h [3]: 34 µM
- concentration at 1 h [4]: 25 µM
- concentration at 2 h [3]: 33 µM
- concentration at 2 h [4]: 20 µM
- concentration at 4 h [3]: 14 µM
- concentration at 4 h [4]: 4.4 µM
- concentration at 6 h [3]: 6.1 µM
- concentration at 6 h [4]: ~0.5 µM

SMILES: Nc1nc2c(ncn2CCC(CO)CO)c(=O)[nH]1 [penciclovir]
- AUC at 6 h (20 mg/kg, oral penciclovir 20 mg/kg, Duck No. 139, read-out: AUC (area under the 0-6 hr. concentration/time curve) of penciclovir in blood): 55 µM·h
- AUC at 6 h (20 mg/kg, oral penciclovir 20 mg/kg, Duck No. 169, read-out: AUC (area under the 0-6 hr. concentration/time curve) of penciclovir in blood): 57 µM·h
- concentration at 0.25 h [5]: 24 µM
- concentration at 0.25 h [6]: 41 µM
- concentration at 0.5 h [5]: 28 µM
- concentration at 0.5 h [6]: 30 µM
- concentration at 65 min [5]: 18 µM
- concentration at 65 min [6]: 19 µM
- concentration at 2 h [5]: 12 µM
- concentration at 2 h [6]: 10 µM
- concentration at 4 h [5]: 2.8 µM
- concentration at 4 h [6]: 2.6 µM
- concentration at 6 h [5]: ~0.5 µM
- AUC at 6 h (100 mg/kg, oral penciclovir 100 mg/kg, Duck No. 142, read-out: AUC (area under the 0-6 hr. concentration/time curve) of penciclovir in blood): 92 µM·h
- AUC at 6 h (100 mg/kg, oral penciclovir 100 mg/kg, Duck No. 163, read-out: AUC (area under the 0-6 hr. concentration/time curve) of penciclovir in blood): 95 µM·h
- concentration at 0.25 h [7]: 43 µM
- concentration at 0.25 h [8]: 42 µM
- concentration at 0.5 h [7]: 44 µM
- concentration at 0.5 h [8]: 38 µM
- concentration at 1 h [7]: 40 µM
- concentration at 65 min [8]: 44 µM
- concentration at 2 h [7]: 18 µM
- concentration at 2 h [8]: 21 µM
- concentration at 4 h [7]: 3.6 µM
- concentration at 4 h [8]: 2.7 µM
- concentration at 6 h [7]: 1.1 µM
- concentration at 6 h [8]: ~0.5 µM
